# Literature values, collected in patent US9181307B2, “Influenza A 2009 pandemic H1N1 polypeptide fragments comprising endonuclease activity and their use” (priority 2010, dated 2015).
# Target: influenza endonuclease (Influenza A virus, UniProt P03433)
# Settings: recently reported, Kuzuhara 2009; cited from earlier work
compound,measurement,value
"O=C(O[C@@H]1Cc2c(O)cc(O)cc2O[C@@H]1c1cc(O)c(O)c(O)c1)c1cc(O)c(O)c(O)c1 [EGCG, [(2R,3R)-5,7-dihydroxy-2-(3,4,5-trihydroxyphenyl)chroman-3-yl]3,4,5-trihydroxybenzoate]",inhibits the influenza endonuclease,inhibits the influenza endonuclease
